{
  "source": "patent US6447820B1",
  "about": "“Pharmaceutical composition for the prevention and treatment of scar tissue” (priority 2001, dated 2002)",
  "origin": "cited, not measured here",
  "key": {"[1]": {"details": "mice"}, "[2]": {"details": "mice", "remark": "listed apart in the source"}, "[3]": {"details": "X-ray irradiated recipient mice"}, "[4]": {"details": "mice", "remark": "listed apart in the source"}, "[5]": {"details": "guinea pigs"}, "[6]": {"details": "mice", "remark": "listed apart in the source"}},
  "data": [
    {"compound": "CC1(C)O[C@H]2CC(=O)OC[C@]23[C@H]2CC[C@@]4(C)[C@H](c5ccoc5)OC(=O)[C@H]5O[C@]54[C@]2(C)C(=O)C[C@@H]13", "note": "[limonin]", "values": [
      {"measurement": "sleeping time induced by alpha-chloralose-urethane", "setting": "[1]", "value": "shorten"}
    ]},
    {"compound": "COc1ccc2c(c1O)-c1c(O)c(OC)cc3c1[C@H](C2)[N+](C)(C)CC3", "note": "[magnoflorine]", "values": [
      {"measurement": "local GvH reactions", "setting": "[2]", "value": "suppress"}
    ]},
    {"compound": "CC1(C)OC(=O)C=C[C@]2(C)[C@H]3CC[C@@]4(C)[C@H](c5ccoc5)OC(=O)[C@H]5O[C@]54[C@]3(C)C(=O)C[C@@H]12", "note": "[obacunone]", "values": [
      {"measurement": "sleeping time induced by alpha-chloralose-urethane", "setting": "[1]", "value": "shorten"}
    ]},
    {"compound": "COc1cc2c(cc1O)C[C@H]1c3cc(O)c(OC)cc3CC[N@@+]1(C)C2", "note": "[phellodendrine]", "values": [
      {"measurement": "local GvH reactions", "setting": "[2]", "value": "suppress"},
      {"measurement": "local semisyngeneic GvH reactions", "setting": "[2]", "value": "suppressed"},
      {"measurement": "systemic allogeneic GvH reactions", "setting": "[3]", "value": "suppressed"},
      {"measurement": "effector phase of SRBC-induced delayed type hypersensitivity", "setting": "[4]", "value": "did not suppress"},
      {"measurement": "induction phase of SRBC-induced delayed type hypersensitivity", "setting": "[4]", "value": "suppressed"},
      {"measurement": "effector phase of tuberculin-induced delayed type hypersensitivity", "setting": "[5]", "value": "did not suppress"},
      {"measurement": "induction phase of tuberculin-induced delayed type hypersensitivity", "setting": "[5]", "value": "suppressed"},
      {"measurement": "antibody production to SRBC", "setting": "[6]", "value": "did not affect"}
    ]}
  ]
}
